# Assay results: US20240247030A1, “TARGETED DELIVERY OF TERTIARY AMINE-CONTAINING DRUG SUBSTANCES” (Seagen Inc., priority 2014, published 2024)
# Like-named read-outs stand apart in the source and are kept apart here.
# B1: hBU12-14: "vcPAB4-AE ... obtained from compound 14 of Scheme 2 and ... monoclonal antibody hBU12, which targets C19+ cells" (conjugate, chains of the INN, looked up)
# VH: QVQLQESGPGLVKPSQTLSLTCTVSGGSISTSGMGVGWIRQHPGKGLEWIGHIWWDDDKRYNPALKSRVTISVDTSKNQFSLKLSSVTAADTAVYYCARMELWSYYFDYWGQGTLVTVSS
# VL: EIVLTQSPATLSLSPGERATLSCSASSSVSYMHWYQQKPGQAPRLLIYDTSKLASGIPARFSGSGSGTDFTLTISSLEPEDVAVYYCFQGSVYPFTFGQGTKLEIK
# modifications: vcPAB4-auristatin E drug-linker 14
# Tests used:
# L428 MDR+ HL cells = assay: In vitro cytotoxicity (CellTiter-Glo, 96 h); assay type: cell-based
# DEL/BVR MDR+ ALCL cells = assay type: cell-based
# Protocol: (§1) In vitro assays. Cells cultured in log-phase growth were seeded for 24 h in 96-well plates containing 150 μL RPMI 1640 supplemented with 20% FBS. Serial dilutions of antibody-drug conjugates in cell culture media were prepared at 4× working concentrations; 50 μL of each dilution was added to the 96-well plates. Following addition of ADC, cells were incubated with test articles for 4 d at 37° C. After 96 h, growth inhibition was assessed by CellTiter-Glo™ (Promega, Madison, W1) and luminescence was measured on a plate reader. The IC50 value, determined in triplicate, is defined here as the concentration that results in a 50% reduction in cell growth relative to untreated controls.
# [1] = tested on: Hep3B hepatocellular carcinoma cells; assay: In vitro cytotoxicity (CellTiter-Glo, 96 h); assay type: cell-based; conditions: Table 10; cAC10 conjugate, 8 drug units/Ab; antigen-negative cells
# Protocol: as §1
# [2] = Pharmacokinetics of radiolabeled antibody or ADC; assay type: in vivo, rat; conditions: 1 mg/kg i.v., radiolabeled non-targeting ADC
# Protocol: PK test articles were radiolabeled using the following procedure.
# Each test article was dosed once in replicate animals.
# TF1a cells = assay: Intracellular drug release (LC-MS/MS, 24 hr); assay type: cell-based; conditions: Table 12
# Protocol: (§2) Intracellular drug release. TFlα, L428, and HCT-15 cells were used for the study. Cells that had been cultured under normal conditions were harvested and washed into fresh medium at ˜5×10^5 cells/mL. For each treatment condition, 5-15×10^6 cells were plated in T25 or T150 flasks. cOKT9-5023 (8-drugs/Ab) was added at 1 μg/mL to cultures and they were incubated at 37° C., 5% CO2 for 24 hr. For suspension cells, a known volume of cell culture was harvested by centrifugation (500×g, 5 min, 4° C.), and an aliquot of the medium was removed and stored for mass spectral analysis (−20° C.). For adherent cells the medium was carefully removed (an aliquot stored for mass spectral analysis) and the cells lifted with trypsin-EDTA followed by centrifugation (500×g, 5 min, 4° C.) to collect the cell pellet. For both suspension and adherent cells, the harvested cell pellets were resuspended in ice cold PBS and an aliquot was removed for enumeration and determination of average cell diameters using a Vi-Cell XR2.03 cell viability analyzer (Beckman Coulter, Fullerton, CA). The remaining cell suspensions were pelleted (500×g, 5 min) and then washed once more with 1 mL of ice cold PBS. The resulting pellets were stored at −20° C.
# (§3) Untreated samples were generated using untreated cell pellets and culture medium for use in calibration curves. Untreated cell pellets were spiked with 4 μL of 25× standard analyte. Both spiked and treated cell pellets were suspended by vortexing in 400 μL of MeOH containing internal standard and placed at −20° C. for 15 min. The samples were then centrifuged at 16,000×g and the supernatants were prepared for solid phase extraction. Untreated culture medium samples (0.5 mL) were spiked with 4 μL of 25× standard. Both spiked and treated culture media were mixed with 10 μL of internal standard and prepared for solid phase extraction. Samples were subjected to solid phase extraction and the recovered drug-containing solutions were dried and reconstituted for quantification by LC-MS/MS. To derive an equation for the quantitation of released drug in the experimental unknown samples, the peak area for each drug standard was divided by the peak area obtained for the internal standard. The resultant peak area ratios were plotted as a function of the standard spiked amounts and the data points were fitted to a curve using linear regression. The peak area ratios obtained for released drug to internal standard in the experimental samples were converted to drug amounts using the derived equation.
# (§4) MDR cell lines that are CD71^+ are exposed to an LDC (1 μg/mL) comprised of and antibody targeting CD71 (cOKT9) and a quaternized MDR inhibitor (Tariquidar™). The LDC composition designated as cOKT9-gluc4-T was obtained from compound 36 of Scheme 6 and predominately contains LDCs having 8 D^+ units wherein D^+ is quaternized Tariquidar. The predominate LDC of the composition, after controlled hydrolysis of the succinimide ring system is represented by the structure of: […]
# HCT-15 cells = assay: Intracellular drug release (LC-MS/MS, 24 hr); assay type: cell-based; conditions: Table 12, free drug @ 50 nM
# Protocol: as §2, §3, §4
# L428 cells = assay: Intracellular drug release (LC-MS/MS, 24 hr); assay type: cell-based; conditions: Table 12, free drug @ 50 nM
# Protocol: as §2, §3, §4
# [3] = tested on: L540cy Hodgkin lymphoma cells; assay: In vitro cytotoxicity (CellTiter-Glo, 96 h); assay type: cell-based
# DEL ALCL cells = assay type: cell-based
# Karpas299 ALCL cells = assay: In vitro cytotoxicity (CellTiter-Glo, 96 h); assay type: cell-based
# Protocol: as §1
# Ramos NHL cells = assay: In vitro cytotoxicity (CellTiter-Glo, 96 h); assay type: cell-based; conditions: Table 4
# Protocol: as §1
# RL cells = assay: In vitro cytotoxicity (CellTiter-Glo, 96 h); assay type: cell-based; conditions: Table 4
# Protocol: as §1
# [4] = Table 10, cAC10 conjugate, 8 drug units/Ab
# [5] = Table 7, cAC10 conjugate of the Drug-Linker, 8 D+/Ab, 96 h
# [6] = Table 4, quaternized auristatin E ADC, 8 D+/Ab
# [7] = quaternized auristatin E ADC, 8 D+/Ab, CD30-, CD19+
molecule,measurement,setting,value
"CC[C@H](C)[C@H](NC(=O)[C@H]1CCCC[N+]1(C)Cc1ccc(NC(=O)[C@H](C)NC(=O)[C@@H](NC(=O)[C@H](CN)N2C(=O)C=CC2=O)C(C)C)cc1)C(=O)N(C)[C@H](C[C@@H](OC(C)=O)c1nc(C(=O)N[C@@H](Cc2ccccc2)C[C@H](C)C(=O)O)cs1)C(C)C (stereo partly drawn) [Compound 32, (2R)-2-(((2S,3S)-1-(((1R,3R)-1-acetoxy-1-(4-(((2R,4S)-4-carboxy-1-phenylpentan-2-yl)carbamoyl)thiazol-2-yl)-4-methylpentan-3-yl)(methyl)amino)-3-methyl-1-oxopentan-2-yl)carbamoyl)-1-(4-((S)-2-((S)-2-((S)-3-amino-2-(2,5-dioxo-2,5-dihydro-1H-pyrrol-1-yl)propanamido)-3-methylbutanamido)propanamido)benzyl)-1-methylpiperidin-1-ium]","IC50, L428, MDR+ HL",L428 MDR+ HL cells; [4],1 ng/mL
same,"IC50, DEL/BVR, MDR+ ALCL",DEL/BVR MDR+ ALCL cells; [4],4 ng/mL
same,"IC50, Hep3B, CD30- HCC",[1],>1000 ng/mL
"CCCO[C@H](C[C@H](C(C)C)N(C)C(=O)[C@@H](NC(=O)[C@H]1CCCC[N+]1(C)Cc1ccc(O[C@@H]2O[C@H](C(=O)O)[C@@H](O)[C@H](O)[C@H]2O)c(NC(=O)CCNC(=O)[C@H](CN)N2C(=O)C=CC2=O)c1)[C@@H](C)CC)c1nc(C(=O)N[C@@H](Cc2ccccc2)C[C@H](C)C(=O)O)cs1 (stereo partly drawn) [Compound 80, (2R)-1-(3-(3-((S)-3-amino-2-(2,5-dioxo-2,5-dihydro-1H-pyrrol-1-yl)propanamido)propanamido)-4-(((2S,3R,4S,5S,6S)-6-carboxy-3,4,5-trihydroxytetrahydro-2H-pyran-2-yl)oxy)benzyl)-2-(((2S,3S)-1-(((1R,3R)-1-(4-(((2R,4S)-4-carboxy-1-phenylpentan-2-yl)carbamoyl)thiazol-2-yl)-4-methyl-1-propoxypentan-3-yl)(methyl)amino)-3-methyl-1-oxopentan-2-yl)carbamoyl)-1-methylpiperidin-1-ium]",clearance / exposure profile compared with unconjugated antibody (FIG. 12-14),[2],cleared from circulation much more rapidly than the unmodified antibody
"COc1cc2c(cc1OC)CN(CCc1ccc(NC(=O)c3cc(OC)c(OC)cc3NC(=O)c3cnc4ccccc4c3)cc1)CC2 [Free drug, Tariquidar]","Intracellular drug, TF1a",TF1a cells; free drug (Tariquidar) @ 50 nM,3.575 µM
same,"extracellular drug, TF1a","TF1a cells; free drug @ 50 nM, parenthetic: free drug that remains outside the cell",43.8 nM
same,"Intracellular drug, HCT-15",HCT-15 cells,6.649 µM
same,"extracellular drug, HCT-15",HCT-15 cells; parenthetic value,44.3 nM
same,"Intracellular drug, L428",L428 cells,4.846 µM
same,"extracellular drug, L428",L428 cells; parenthetic value,47.0 nM
CC[C@H](C)[C@@H]([C@@H](CC(=O)N1CCC[C@H]1[C@H](OC)[C@@H](C)C(=O)N[C@H](C)[C@@H](O)c1ccccc1)OC)N(C)C(=O)[C@@H](NC(=O)[C@H](C(C)C)[N+](C)(C)Cc1ccc(O[C@@H]2O[C@H](C(=O)O)[C@@H](O)[C@H](O)[C@H]2O)c(NC(=O)CCNC(=O)[C@H](CN)N2C(=O)C=CC2=O)c1)C(C)C [Compound 8],clearance / exposure profile compared with unconjugated antibody (FIG. 12-14),[2],PK properties identical to that of unmodified antibody through 7 days
CC[C@H](C)[C@H](NC(=O)[C@H]1CCCC[N+]1(C)Cc1ccc(O[C@@H]2O[C@H](C(=O)O)[C@@H](O)[C@H](O)[C@H]2O)c(NC(=O)CCNC(=O)[C@H](CN)N2C(=O)C=CC2=O)c1)C(=O)N(C)[C@H](C[C@@H](OC(C)=O)c1nc(C(=O)N[C@@H](Cc2ccccc2)C[C@H](C)C(=O)O)cs1)C(C)C (stereo partly drawn) [Compound 104],"IC50, L540cy, HL",[3]; [5],4 ng/mL
same,"IC50, L428, MDR+ HL",L428 MDR+ HL cells; [5],0.5 ng/mL
same,"IC50, L428, MDR+ HL",L428 MDR+ HL cells; [4],0.4 ng/mL
same,"IC50, DEL, ALCL",DEL ALCL cells; [5],2 ng/mL
same,"IC50, DEL, ALCL","DEL ALCL cells; Table 11, cAC10 conjugate, 8-drugs/mAb",2 ng/mL
same,"IC50, DEL/BVR, MDR+ ALCL",DEL/BVR MDR+ ALCL cells; [5],3 ng/mL
same,"IC50, DEL/BVR, MDR+ ALCL",DEL/BVR MDR+ ALCL cells; [4],4 ng/mL
same,"IC50, Karpas299, ALCL","Karpas299 ALCL cells; Table 7, cAC10 (anti-CD30) conjugate of the Drug-Linker, 8 D+/Ab, 96 h",0.6 ng/mL
same,"IC50, Hep3B, CD30- HCC",[1],>1000 ng/mL
"CC[C@H](C)[C@H](NC(=O)[C@H]1CCCC[N+]1(C)Cc1ccc(NC(=O)[C@H](CCC(=O)O)NC(=O)[C@@H](NC(=O)[C@H](CN)N2C(=O)C=CC2=O)C(C)C)cc1)C(=O)N(C)[C@H](C[C@@H](OC(C)=O)c1nc(C(=O)N[C@@H](Cc2ccccc2)C[C@H](C)C(=O)O)cs1)C(C)C (stereo partly drawn) [Compound 113, (2R)-2-(((2S,3S)-1-(((1R,3R)-1-acetoxy-1-(4-(((2R,4S)-4-carboxy-1-phenylpentan-2-yl)carbamoyl)thiazol-2-yl)-4-methylpentan-3-yl)(methyl)amino)-3-methyl-1-oxopentan-2-yl)carbamoyl)-1-(4-((S)-2-((S)-2-((S)-3-amino-2-(2,5-dioxo-2,5-dihydro-1H-pyrrol-1-yl)propanamido)-3-methylbutanamido)-4-carboxybutanamido)benzyl)-1-methylpiperidin-1-ium]","IC50, L428, MDR+ HL",L428 MDR+ HL cells; [4],0.3 ng/mL
same,"IC50, DEL/BVR, MDR+ ALCL",DEL/BVR MDR+ ALCL cells; [4],2 ng/mL
same,"IC50, Hep3B, CD30- HCC",[1],>1000 ng/mL
B1,"viable cells remaining at the bottom of the dose-response curve, L540cy parental","[3]; Table 4, parenthetic value",44%
same,"IC50 for cell growth inhibition, L540cy parental",[3]; [6],5080 ng/mL
same,"viable cells remaining at the bottom of the dose-response curve, L428","L428 MDR+ HL cells; Table 4, parenthetic value",41%
same,"IC50 for cell growth inhibition, L428",L428 MDR+ HL cells; [6],8614 ng/mL
same,"viable cells remaining at the bottom of the dose-response curve, Ramos",Ramos NHL cells; parenthetic value,0%
same,"IC50 for cell growth inhibition, Ramos",Ramos NHL cells; [7],0.7 ng/mL
same,"viable cells remaining at the bottom of the dose-response curve, Karpas-299","Karpas299 ALCL cells; Table 4, parenthetic value",10%
same,"IC50 for cell growth inhibition, Karpas-299",Karpas299 ALCL cells; [6],3903 ng/mL
same,"viable cells remaining at the bottom of the dose-response curve, RL",RL cells; parenthetic value,21%
same,"IC50 for cell growth inhibition, RL",RL cells; [7],2110 ng/mL
